According to patent US20080075767A1, “IBUPROFEN-CONTAINING LIQUID FILLED HARD CAPSULES” (priority 2006, published 2008):
Like-named read-outs stand apart in the source and are kept apart here.

Columns and labels:
[1] = From the text: Different solvent systems such as oils and medium chain triglycerides, solubilizing agents, emulsifying agents (self-emulsifying) and surfactants for the liquid filled capsules were screened for their effectiveness in solubilizing ibuprofen and are listed in Tables 5 to 6.
The screening method involved the following steps:
2. Step T2: the sample was heated using a hot plate and stirrer to facilitate ibuprofen solubility in the vehicle and the samples were left overnight.
3. […] Additional ibuprofen was added by reheating selected T2 solutions until re-crystallization or precipitation was observed.
Observations on whether ibuprofen appeared as dissolved, a suspension (fine suspension) or crystallized (agglomerates) were reported.

[2] = Water activity (Rotronic Hygrolab); assay type: physicochemical; conditions: water activity at 19.56-19.87 °C
[3] = Ibuprofen lysinate vehicle screening; conditions: ibuprofen lysinate (IBL) in the excipient named; outcome in Comments cell beside
[4] = Ibuprofen vehicle screening (single excipients); assay type: physicochemical; conditions: for Approx. Percentage of API that Resulted in Precipitate: ibuprofen USP in the excipient named, precipitate within approx. 24 h after cooling to room temperature, * = close to saturation point, only a few crystals
Description: Initially, ibuprofen United States Pharmacopeia grade (USP) powder was mixed at room temperature with individual excipients being considered as shown in Table 1. Ibuprofen was incrementally added and mixed until a precipitate was observed. […] Observations were made daily to determine if the mixture would remain a solution or precipitate out within an approximately 24 hour period.

Amt of API added [1] [mg]	Observation [1]	Approximate Percentage of IBL salt added in powder form to excipient and heated [3] [%]	Amt of API added ([1]; 24 h) [mg]	Observation ([1]; 24 h)	Approx. Percentage of API that Resulted in Precipitate [4]	Approx. Max. Percentage of API in Solution Tested ([4]; ibuprofen USP in the single excipient named, melted in on hot plate, remained in solution approx. 24 h) [%]	Compound	AW Reading [2]
257.8	Solidify (T1)	–	–	–	–	–	Castor Oil	–
–	–	–	–	–	–	–	O [Water]	0.999
–	–	2.4	4000.0	Crystallized (T3)	28 * %	17	CC(O)CO (stereo not drawn) [Propylene Glycol]	–
250.0	Turbid (T1)	2.2	–	–	2.5%	–	OCC(O)CO [Glycerin]	–
